Measurements as given in patent US7585839B2, “Medical uses of intercellular communication facilitating compounds” (Zealand Pharma A/S, priority 2001, dated 2009).

Tests used:
[1] = tested on: ROS 17/2.8 cells; experiment: Intercellular calcium waves after mechanical stimulation, ROS 17/2.8 cells; type: cell-based, rat; settings: 48 hours hypoxia 3-6% O2; 10^−8 M, 10 minutes; 2.2 cells before
Experimental: ROS 17/2.8 cells: Cells were cultured in 100 mm dishes at 37° C. with 5% CO2 and medium change every 2-3 days. ROS medium (all reagents obtained from Life Technologies): MEM (Cat.No. 31095) supplemented with 10% heat-inactivated calf serum (Cat.No. 16170), 1% NEAA (Cat.No. 11140), 1% Sodium Pyruvate (Cat.No. 11360), 1% L-Glutamine (Cat.No. 25030) and 0.1% Penicillin/Streptomycin (Cat,No. 15140). For video imaging experiments, cells were plated on coverslips at 2-3×10^5 cells/coverslip and cultured for 2-3 days before use.
The cells cultured on coverslips were loaded with 5 μM fura-2-AM (Molecular Probes, Cat.No. F-1221), for 30 minutes at 37° C., and incubated in fresh medium for 20 minutes. Coverslips were then affixed to a PDMI-2 culture chamber (Medical Systems Corp.), maintained at 37° C. with superfused CO2, on a Zeiss Axiovert microscope. Intercellular calcium waves were induced by mechanical stimulation of a single cell using a borosilicate glass micro pipette affixed to an Eppendorf 5171 micromanipulator. Imaging was performed using a MetaMorph imaging system (Universal Imaging). The excitation light (340 and 380 nm) was provided by a monochromator (T.I.L.L. Photonics GmbH). Images were acquired with an intensified CCD camera (Dage MTI) and digitized with a Matrox MVP image processing board.

[2] = tested on: human osteoblast; experiment: Lucifer Yellow microinjection dye transfer, human osteoblasts; type: cell-based; settings: 48 hours hypoxia 3-6% O2; 10 minutes incubation; 7 cells before
Experimental: (§1) Human osteblast cells (hOB): Cells were isolated from human bone marrow obtained by puncture of the posterior iliac spine of healthy volunteers (aged 20-36): 10-15 ml marrow material was collected in 15 ml PBS+Ca,Mg (Life Technologies, Cat.No. 14040) with 100 U/ml Heparin (Sigma, Cat.No. H-3149). The mononuclear fraction of the marrow was isolated on a Lymphoprep gradient (Nycomed Pharma, Cat.No. 1001967), by centrifugation at 2200 rpm for 30 min. After harvesting, the mononuclear fraction was washed once with culture medium and centrifuged at 1800 rpm for 10 min. Subsequently cells were counted and plated in culture medium at 8×10^6 cells/100 mm dish. hOB medium (all reagents obtained from Life Technologies): MEM w/o Phenol Red w/Glutamax (Cat.No. 041-93013) supplemented with 10% heat inactivated fetal calf serum (Cat.No. 10106) and 0.1% Penicillin/Streptomycin (Cat.No. 15140). Medium was changed the following day and the cells were cultured at 37° C. in 5% CO2 with medium change every 7 days. After 3-4 weeks of culture the cells had reached 70% confluence. The medium was then supplemented with 100 nM Dexamethasone (Sigma, Cat.No. D-4902) for 7 days. Cells were then plated for video imaging experiments: a 25 mm #1 glass coverslip was placed in a 35 mm dish (or each well of a 6-well multidish), cells were plated at 2.5×10^5 cells/coverslip and cultured for 2-3 days before use. […]

[3] = tested on: human osteoblastic cells; experiment: Intercellular calcium waves after mechanical stimulation, human osteoblastic cells; type: cell-based
Experimental: as §1

[4] = tested on: reentry ventricular tachycardia; experiment: Ventricular reentry arrhythmias in dogs after coronary artery occlusion; type: in vivo, dog; settings: after the lowest dose (bolus 0.1 μg/kg; infusion 2 ng/kg/min) i.v.
Experimental: Three dogs were studied in the anesthetized, open chest state to facilitate electrode placement for mapping. α-chloralose was given as a bolus (200 mg/kg) and then a constant infusion at 8 mg/kg/hr (dissolved in polyethylene glycol, MW=200). The femoral vein and artery was cannulated for administration of fluid and drugs and for measurement of ascending aortic pressure, respectively.
The sinus node was clamped and the atrial appendage was paced with a programmable stimulator with constant current outputs at two times diastolic threshold. Pacing rate was ≧200 b/min to control heart rates. […] Late ventricular diastolic threshold was measured during each intervention; the pacing current was four times threshold.
Test sites were chosen along the shaft of 16 pole needles (J. Kassell, Fayetteville, N.C.); each pole completely surrounds the needle shaft to prevent directionality of needle orientation from recording of adjacent Purkinje strands. Six bipolar electrograms (1 mm spacing) were recorded sequentially down the shaft of the needle by amplifying up to 1000 times, filtering from 3-1300 Hz and recording via oscilloscope during atrial pacing. Four intramural electrograms are recorded on each multipolar needle. […] Inter-needle distance measured on epicardium varies over 6-10 mm in dogs weighing 12-16 kg. […]

[5] = tested on: calcium-induced arrythmias; experiment: Calcium-induced arrhythmia model in mice (CaCl2-induced 2nd degree AV-block); type: in vivo; settings: mouse, in vivo
Experimental: The antiarrhythmic effects of compounds of this invention were tested in an in vivo model of calcium-induced arrythmias according to the model of Lynch et al.^[37]. […]. Commercial solutions of hypnorm and midazolam were diluted 1:1 in distilled water and one part diluted Hypnorm® is mixed with one part diluted midazolam.
The anaesthesia was induced by s.c. administration in a dose of 0.05-0.075 μl/10 gram mouse. An i.v. cannula was inserted into the tail vein. The lead II ECG signal was recorded continuously by positioning of a stainless steel ECG electrodes on the right forelimb and on the left hind limb. The ground electrode was placed on the right hind limb. The signal was amplified (×5.000-10.000) and filtered (0.1-150 Hz) via a Hugo Sachs Electronic model 689 ECG module. The analogue signal was digitised via a 12 bit data acquisition board (Data Translation model DT321) and sampled at 1000 Hz using the Notocord HEM 3.1 software for Windows NT. After a 10-min equilibration period, the test sample of drug was injected into the tail vein. Mice pre-treated with vehicle were tested as a measure of the control level in untreated animals. The injection volume was 100 μl in all experiments. Infusion of CaCl2 (30 mg/ml, 0.1 ml/min≈100 mg/kg/min (calciumchlorid-2-hydrat, Riedel-de Haën, Germany)) was started 3 min after i.v. administration of drug or vehicle.
The time lag to onset of 2nd degree AV-block was determined as the time from the start of CaCl2 infusion until the first arrhythmic event occured. An event of 2nd degree AV-block was defined as intermittent failure of the AV conduction characterised by a P-wave without the concomitant QRS complex.
Responses were expressed relative to the time until 2nd degree AV-block occurred in vehicle treated mice.

[6] = tested on: human osteoblast; settings: human osteoblast cultures and rat osteosarcoma cell lines; conference abstract; cited from earlier work

Substance: Ac-D-Tyr-D-Pro-D-4Hyp-Gly-D-Ala-Gly-NH2 [Compound 2]
- average number of cells in the calcium wave [1]: 5.4 cells
- dye transfer, number of cells [2]: 9 cells
- average number of cells in the calcium wave ([3]; after ATP desensitization, 10^−8 mol/l, 10 minutes, 4.5 cells before): 6.2 cells
- average number of cells in the calcium wave ([3]; medium without glucose, 10^−8 M, 1.4 cells before): 2.9 cells
- inducibility of epicardial reentry VT [4]: no longer inducible
- CaCl2 mice In vivo, % [5]: 65 +/− 7%
- hypoxia-induced decrease of intercellular communication [6]: completely reversed
